Reference: patent US10925890B2, “Use of dextran sulfate” (TX MEDIC AB, priority 2014, dated 2021)
“Also recorded” adds a separate entry of the source.

Legend:
[1] = tested on: Critical Hind-Limb Ischemia Mouse Model; assay: In vivo assessment of limb function, mouse hind-limb ischemia
Procedure: Semi-quantitative assessment of impaired use of the ischemic limb was performed once a week post-surgery using the following scale, see Table 7.
Limb function was graded as “Not applicable” in case of partial or full limb amputation. In such case blood flow measurements was not included in the statistical analysis.

[2] = Body weight, tMCAO rat-stroke study; assay type: in vivo; details: 30 mg/kg 3 times a week or 15 mg/kg daily s.c., 28 days
Description: In total 46 male SD rats having an average body weight of 342 g at study initiation (Day 0) were obtained from Harlan Laboratories, Israel. The minimal and maximal weight recorded in each group was within a range of ±20% of the group mean weight. Animals were handled according to guidelines of the National Institute of Health (NIH) and the Association for Assessment and Accreditation of Laboratory Animal Care (AAALAC). Animals were housed in polyethylene cages (5/cage) measuring 35×30×15 cm, with stainless steel top grill facilitating pelleted food and drinking water in plastic bottle; bedding: steam sterilized clean paddy husk (Harlan, Sani-chip cat #:2018SC+F) was used and bedding material was changed along with the cage at least twice a week. Animals were fed ad libitum a commercial rodent diet (Teklad Certified Global 18% Protein Diet cat #: 106S8216). Animals had free access to autoclaved and acidified drinking water (pH between 2.5 and 3.5) obtained from the municipality supply. Animals were housed under standard laboratory conditions, air-conditioned and filtered (HEPA F6/6) with adequate fresh air supply (Minimum 15 air changes/hour). Animals were kept in a climate-controlled environment. Temperatures range was 20-24° C. and RH range was 30-70% with 12 hours light and 12 hours dark cycle. […]

[3] = tested on: rat model of myocardial infarction; assay: Infarct size (Masson's trichrome), rat myocardial infarction model; assay type: in vivo; details: 35 days after MI induction
Procedure: The myocardial infarction model in rat involved ligations of the left coronary artery permanently with an intramural stitch. The surgery caused obstruction of the blood flow and subsequently to severe ischemic damage and cardiac walls infarct.
On the day of surgery the animals were anesthetized with a combination of 90 mg/kg ketamine and 10 mg/kg xylazine. In order to induce MI, under anesthesia and analgesia, the rat chest was opened by left thoracotomy, the pericardium was removed and the proximal left coronary artery was permanently occluyded with an intramural stitch (Circulation 117, 1388-1396 (2008)). Two hours post surgery, each animal in all treated groups were injected s.c. with dextran sulfate or saline vehicle according to Table 11.
On day 36 after MI induction, the rats were sacrificed by CO2 inhalation and the hearts were harvested and fixed in 4% buffered Formalin solution. […]
For the purpose of MI size identification, Masson's Trichrome Staining was used. […] The sections were visualized in a computer-imaging system and infarct size was marked and calculated using the ImageJ program. Infarct size was expressed as percentage of infarct area (unstained) versus the total left ventricle area. For each animal, five serial sections including one containing the ligature were analyzed and the mean value of all sections for each heart was calculated. […]

[4] = tested on: Rat Hind-Limb Ischemia Model; assay: Ischemic severity (necrosis grades), rat hind-limb ischemia; assay type: in vivo; details: all groups incl. vehicle; Day 7 up to Day 28
Procedure: The femoral artery and vein were ligated twice with 4-0 silk thread and transected between the ligatures. The wound was closed with 3-0 silk thread and the rats were allowed to recover.
Animals in group 4M and 5M were injected s.c. once on Day 8, see Table 12.

[5] = tested on: Rat Hind-Limb Ischemia Model; assay: Immunohistochemistry, SMA and Factor 8 capillaries density, rat hind-limb ischemia; assay type: in vivo; details: groups 2M-5M vs control 1M; Day 28
Procedure: Four sections of muscle samples were taken from the same areas of six animals from groups 1M, 2M, 3M, 4M, 5M and stained for blood vessels using antibodies against SMA and Factor 8. The area of blood vessels was evaluated by using image analysis. Density was expressed as the mean number of capillaries per field of view. Total vessels represented all blood vessels in the measured area. The number of SMA and factor 8 positive capillaries in right ischemic limb was larger in all dextran sulfate treated groups 2M-5M compared to the control group 1M on Day 28 of the study, see FIG. 23. SMA and factor 8 positive staining are considered as an indication for small capillaries formation in rats, and thus the obtained results supported blood flow improvement observed in the animal groups treated with dextran sulfate. Statistical analysis performed using two-way ANOVA followed by Bonferroni multiple comparisons, */** indicate p<0.0510.01.

[6] = day 7 (before treatment), group 2M, 10 mg/kg 3 times/week
[7] = day 7 (before treatment), group 3M, 30 mg/kg 3 times/week
[8] = day 7 (before treatment), group 4M, 30 mg/kg 1 time/week
[9] = day 35, group 2M, 10 mg/kg s.c. 3 times/week
[10] = day 35, group 3M, 30 mg/kg s.c. 3 times/week
[11] = day 35, group 4M, 30 mg/kg s.c. 1 time/week

Dextran sulfate
Limb function score (0-3, 3 worst) ([1]; 10 or 30 mg/kg, 1x/w or 3x/w from day 8, from day 21 and onward, two-way ANOVA): significant improvement | Incidence of mice with limb function score 0 [1, 6]: 0.0% | Incidence of mice with limb function score 1 [1, 6]: 0.0% | Incidence of mice with limb function score 2 [1, 6]: 21.4% | Incidence of mice with limb function score 3 [1, 6]: 79.6% | Incidence of mice with limb function score 0 [1, 7]: 0.0% | Incidence of mice with limb function score 1 [1, 7]: 0.0% | Incidence of mice with limb function score 2 [1, 7]: 21.4% | Incidence of mice with limb function score 3 [1, 7]: 79.6% | Incidence of mice with limb function score 0 [1, 8]: 0.0% | Incidence of mice with limb function score 1 [1, 8]: 0.0% | Incidence of mice with limb function score 2 [1, 8]: 7.1% | Incidence of mice with limb function score 3 [1, 8]: 92.9% | Incidence of mice with limb function score 0 [1, 9]: 50.0% | Incidence of mice with limb function score 1 [1, 9]: 42.9% | Incidence of mice with limb function score 2 [1, 9]: 7.1% | Incidence of mice with limb function score 3 [1, 9]: 0.0% | Incidence of mice with limb function score 0 [1, 10]: 72.4% | Incidence of mice with limb function score 1 [1, 10]: 21.5% | Incidence of mice with limb function score 2 [1, 10]: 7.1% | Incidence of mice with limb function score 3 [1, 10]: 0.0% | Incidence of mice with limb function score 0 [1, 11]: 69.2% | Incidence of mice with limb function score 1 [1, 11]: 30.8% | Incidence of mice with limb function score 2 [1, 11]: 0.0% | Incidence of mice with limb function score 3 [1, 11]: 0.0% | Body weight, differences among treatment groups [2]: no statistically significant differences | Infarct size / infarct volume, treatment group 2M vs control group 1M ([3]; 15 mg/kg s.c. 3 times a week for 3 weeks): significant difference; also recorded: significantly decreased the infarct volume | Average infarct size compared to untreated control group ([3]; all treatment groups (15 or 3 mg/kg s.c.)): smaller average infarct size | Toe necrosis or foot amputation [4]: no toe necrosis or foot amputation was found | Number of SMA and factor 8 positive capillaries in right ischemic limb [5]: larger
